In US20010038822A1, “Melanotropin analogs for potential radiopharmaceuticals for diagnosis and treatment of melanoma” (priority 1998, published 2001):
pEC50, pKi: −log10 of the molar value. Read-outs that look alike come from different tables or passages of the source. Positions of bridges follow the written chain, without caps; N, C: chain ends. Non-standard residues stand in square brackets, D forms with d. Residues, ends and D or L forms follow the SMILES beside them.

Columns and labels:
[1] = Stabilities of tracer level complexes under challenge (10 mM cysteine / 0.05M phosphate); assay type: physicochemical
Experimental: ^99mTcO4^− was obtained from a ^99Mo/^99mTc generator produced by Mallinckrodt, Inc. ^188Re was obtained from a ^188W/^188Re generator produced by the University of Missouri research reactor. Radiolabeled peptides were prepared by substitution onto either ^99mTc- or ^188Re-glucoheptonate. For ^188Re complexes, 500 μL of generator eluant was added to a tube containing 50 mg Na-glucoheptonate and 10 mg SnCl2.2H2O dissolved in 200 μL N2-purged 5% disodium-EDTA and heated at 70-80° C. for 0.5 hour. 50 μL of a 1 mg/mL peptide solution was then added, the pH was adjusted to 7-8 with 0.5 N NaOH, and the mixture was allowed to incubate for 90 minutes. at 70-80° C. Syntheses of ^99mTc-labeled peptides differed only in that they were carried out at 25° C. using a 10-fold lower concentration of SnCl2.2H2O.

[2] = system: B16F1 murine melanoma cells; assay type: cell-based
Experimental: Peptide bioactivity was determined by measuring melanin released into cell culture media in an in vitro assay using B16F1 murine melanoma cells (Siegrist, W., 1986). Cells were incubated with various concentrations of peptide and assayed for melanin production by measuring the absorbance of the culture media at 405 nm. Absorbance values were compared to a standard curve obtained using synthetic melanin from Sigma. The standard curve was linear over the experimental range of absorbance values.

[3] = target: T1, α-MSH receptor on B16-F1 murine melanoma cells (Mus musculus, UniProt Q01727); experiment: Competitive receptor binding assay with ^125I-[Nle^4, D-Phe^7]-α-MSH
T1 construct: endogenous in cells; host or cells: B16-F1 murine melanoma cells
T1 sequence (Q01727 whole entry): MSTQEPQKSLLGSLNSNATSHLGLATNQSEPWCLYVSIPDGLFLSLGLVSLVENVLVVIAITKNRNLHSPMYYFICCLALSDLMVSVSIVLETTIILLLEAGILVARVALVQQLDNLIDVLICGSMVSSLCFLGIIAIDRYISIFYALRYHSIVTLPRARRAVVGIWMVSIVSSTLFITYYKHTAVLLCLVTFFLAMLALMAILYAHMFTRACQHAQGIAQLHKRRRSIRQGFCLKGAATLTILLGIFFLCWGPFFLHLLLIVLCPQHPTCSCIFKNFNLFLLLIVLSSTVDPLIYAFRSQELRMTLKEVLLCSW
Experimental: Quantitative receptor binding assays were carried out following a previously described method (Siegrist W., 1988; Sahm, U. G., 1994). Cells were seeded at a density of 5×10^5 cells per well in 24 well tissue culture plates and exposed to varying concentrations of peptides on 0.5 mL of binding media (25 mM HEPES/NaOH pH=7.4, 0.2% BSA, 0.3 mM 1,10-phenanthroline, and approximately 100,000 CPM of ^125I-[Nle^4, D-Phe^7]-α-MSH) (36) at 4° C. for 8 hours. The cells were rinsed with PBS, lysed with 1 M NaOH and counted in a 1275 minigamma gamma counter from LKB Wallac.

CC(=O)N[C@@H](CS)C(=O)N[C@@H](CCC(=O)O)C(=O)N[C@@H](Cc1c[nH]cn1)C(=O)N[C@H](Cc1ccccc1)C(=O)N[C@@H](CCCNC(=N)N)C(=O)N[C@@H](Cc1c[nH]c2ccccc12)C(=O)N[C@@H](CS)C(=O)N[C@@H](CCCCN)C(=O)N1CCC[C@H]1C(=O)N[C@H](C(N)=O)C(C)C (188Re complex, metal not drawn) [^188ReMSH] (Ac-CEH[dF]RWCKPV-NH2)
Stability of tracer level complex ([1]; 10 mM Cysteine challenge, 4 hrs): 48.9% | Stability of tracer level complex ([1]; 10 mM Cysteine challenge, 24 hrs): 34.0% | Stability of tracer level complex ([1]; 0.05M Phosphate challenge, 4 hrs): 90.3% | Stability of tracer level complex ([1]; 0.05M Phosphate challenge, 24 hrs): 66.4% | half-life ([1]; 0.05M phosphate with 10 mM cysteine, in competition with 10 mM free cysteine, read-out: t½ (converted)): ~240 min

CC(=O)N[C@H]1CSSC[C@@H](C(=O)N[C@@H](CCCCN)C(=O)N2CCC[C@H]2C(=O)N[C@H](C(N)=O)C(C)C)NC(=O)[C@H](Cc2c[nH]c3ccccc23)NC(=O)[C@H](CCCNC(=N)N)NC(=O)[C@@H](Cc2ccccc2)NC(=O)[C@H](Cc2c[nH]cn2)NC(=O)[C@H](CCC(=O)O)NC1=O [APOMSH, NA-Cys-Glu-His-D-Phe-Arg-Trp-Cys-Lys-Pro-Val-NH2, reference compound] (Ac-CEH[dF]RWCKPV-NH2; disulfide 1-7)
pEC50 [2]: 10.59 | pKi ([3]; B16-F1 murine melanoma cells, read-out: Ki): 9.17

rhenium complex of NAc-Cys-Cys-Glu-His-D-Phe-Arg-Trp-Cys-Lys-Pro-Val-NH2, APOMSH analog with additional N-terminal Cys [ReCCMSH]
pEC50 ([2]; B16-F1 murine melanoma cells, read-out: EC50 melanin synthesis): 10.46 | ability to stimulate melanin production ([2]; compared with APOMSH): almost identical to APOMSH | receptor binding affinity higher than that of ReMSH [3]: approximately 25 fold | pKi ([3]; read-out: receptor binding affinity): 8.54
